Measurements: US8198273B2, “Compounds and methods for kinase modulation, and indications therefor” (Plexxikon Inc., priority 2009, dated 2012)

Tests used:
A-Raf = molecular target: T1, A-Raf (Homo sapiens, UniProt P10398); assay: A-Raf biochemical kinase inhibition (AlphaScreen, biotin-MEK1 substrate); details: 100 μM ATP
T1 sequence (P10398 1-606): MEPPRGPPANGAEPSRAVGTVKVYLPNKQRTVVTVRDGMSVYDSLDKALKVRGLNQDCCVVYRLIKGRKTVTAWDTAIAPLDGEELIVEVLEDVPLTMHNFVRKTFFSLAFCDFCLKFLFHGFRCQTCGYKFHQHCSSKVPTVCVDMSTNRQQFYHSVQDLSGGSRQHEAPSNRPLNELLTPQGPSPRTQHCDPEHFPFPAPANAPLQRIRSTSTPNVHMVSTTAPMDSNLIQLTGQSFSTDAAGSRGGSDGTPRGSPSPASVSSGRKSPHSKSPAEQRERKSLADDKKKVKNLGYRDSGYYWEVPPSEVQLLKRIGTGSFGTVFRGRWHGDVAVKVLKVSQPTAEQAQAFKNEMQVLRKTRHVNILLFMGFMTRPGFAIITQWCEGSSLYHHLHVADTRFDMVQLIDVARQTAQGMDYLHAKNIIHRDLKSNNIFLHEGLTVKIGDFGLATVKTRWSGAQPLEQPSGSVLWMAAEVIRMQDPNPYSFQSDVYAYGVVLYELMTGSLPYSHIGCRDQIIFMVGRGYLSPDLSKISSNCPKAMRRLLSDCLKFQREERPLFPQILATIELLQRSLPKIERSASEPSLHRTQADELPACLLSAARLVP
Procedure: Compounds to be tested are diluted in dimethyl sulfoxide to a concentration of 0.1 mM. These are serially diluted 15 μL into 30 μL of dimethyl sulfoxide seven times in 96 well plates for a total of 8 dilution points, and for each dilution point 1 μL is added to a well of an assay plate. […] The reaction is started with addition of 10 μL of 200 μM ATP (i.e. final 100 μM ATP). […] The plates are incubated for 3 hours at room temperature and read on Envision reader (Perkin Elmer). […] The signal vs. compound concentration is used to determine the IC50.

[1] = tested on: SW620 colon adenocarcinoma cells (wild-type B-RAF); assay: SW620 cell growth inhibition (ATPlite); format: cell-based; details: Homo sapiens, SW-620, 72 h; SW620, 3 days incubation
Summary of the method: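 ATPlite luminescence, taken as a cell-number measure, gave IC50 values after a 3-day 37° C, 5% CO2 incubation. Compounds were tested as 8-point threefold titrations, highest final concentration 10 μM, added to cells seeded the day before.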

SMILES | IC50 (A-Raf) | IC50 [1]
O=C(c1c(F)ccc(NS(=O)(=O)c2cc(F)ccc2F)c1F)c1c[nH]c2ncc(Cl)cc12 [P-2002, N-[3-(5-Chloro-1H-pyrrolo[2,3-b]pyridine-3-carbonyl)-2,4-difluoro-phenyl]-2,5-difluoro-benzenesulfonamide] | < 0.01 µM | < 20 µM
COc1cnc2[nH]cc(C(=O)c3c(F)ccc(NS(=O)(=O)c4ccccc4F)c3F)c2c1 [P-2009, N-[2,4-Difluoro-3-(5-methoxy-1H-pyrrolo[2,3-b]pyridine-3-carbonyl)-phenyl]-2-fluoro-benzenesulfonamide] | < 0.01 µM | > 10 µM
COc1cnc2[nH]cc(C(=O)c3c(F)ccc(NS(=O)(=O)c4cc(F)ccc4F)c3F)c2c1 [P-2010, N-[2,4-Difluoro-3-(5-methoxy-1H-pyrrolo[2,3-b]pyridine-3-carbonyl)-phenyl]-2,5-difluoro-benzenesulfonamide] | < 0.01 µM | > 10 µM
Cc1cnc2[nH]cc(C(=O)c3c(F)ccc(NS(=O)(=O)c4ccccc4F)c3F)c2c1 [P-2014, N-[2,4-Difluoro-3-(5-methyl-1H-pyrrolo[2,3-b]pyridine-3-carbonyl)-phenyl]-2-fluoro-benzenesulfonamide] | < 0.01 µM | > 10 µM
Cc1cnc2[nH]cc(C(=O)c3c(F)ccc(NS(=O)(=O)c4cccc(F)c4)c3F)c2c1 [P-2016, N-[2,4-Difluoro-3-(5-methyl-1H-pyrrolo[2,3-b]pyridine-3-carbonyl)-phenyl]-3-fluoro-benzenesulfonamide] | < 0.01 µM | > 10 µM
O=C(c1c(F)ccc(NS(=O)(=O)c2ccccc2F)c1F)c1c[nH]c2nccc(Cl)c12 [P-2017, N-[3-(4-Chloro-1H-pyrrolo[2,3-b]pyridine-3-carbonyl)-2,4-difluoro-phenyl]-2-fluoro-benzenesulfonamide] | < 0.01 µM | > 10 µM
O=C(c1c(F)ccc(NS(=O)(=O)c2cc(F)ccc2F)c1F)c1c[nH]c2nccc(Cl)c12 [P-2018, N-[3-(4-Chloro-1H-pyrrolo[2,3-b]pyridine-3-carbonyl)-2,4-difluoro-phenyl]-2,5-difluoro-benzenesulfonamide] | < 0.01 µM | > 10 µM
O=C(c1c(F)ccc(NS(=O)(=O)c2cccc(F)c2)c1F)c1c[nH]c2nccc(Cl)c12 [P-2019, N-[3-(4-Chloro-1H-pyrrolo[2,3-b]pyridine-3-carbonyl)-2,4-difluoro-phenyl]-3-fluoro-benzenesulfonamide] | < 0.01 µM | > 10 µM
N#Cc1ccnc2[nH]cc(C(=O)c3c(F)ccc(NS(=O)(=O)c4ccccc4F)c3F)c12 [P-2020, N-[3-(4-Cyano-1H-pyrrolo[2,3-b]pyridine-3-carbonyl)-2,4-difluoro-phenyl]-2-fluoro-benzenesulfonamide] | < 0.01 µM | > 10 µM
COc1ccnc2[nH]cc(C(=O)c3c(F)ccc(NS(=O)(=O)c4cc(F)ccc4F)c3F)c12 [P-2022, N-[2,4-Difluoro-3-(4-methoxy-1H-pyrrolo[2,3-b]pyridine-3-carbonyl)-phenyl]-2,5-difluoro-benzenesulfonamide] | < 0.1 µM | > 10 µM
CCCS(=O)(=O)Nc1ccc(F)c(C(=O)c2c[nH]c3ncc(-c4ccc(S(=O)(=O)NC)cc4)cc23)c1F [P-2167, 4-{3-[2,6-Difluoro-3-(propane-1-sulfonylamino)-benzoyl]-1H-pyrrolo[2,3-b]pyridin-5-yl}-N-methyl-benzenesulfonamide] |  | < 10 µM
CCCS(=O)(=O)Nc1ccc(F)c(C(=O)c2c[nH]c3ncc(-c4ccc(S(=O)(=O)NC5CC5)cc4)cc23)c1F [P-2168, N-Cyclopropyl-4-{3-[2,6-difluoro-3-(propane-1-sulfonylamino)-benzoyl]-1H-pyrrolo[2,3-b]pyridin-5-yl}-benzenesulfonamide] |  | < 5 µM
CCCS(=O)(=O)Nc1ccc(F)c(C(=O)c2c[nH]c3ncc(-c4cn[nH]c4)cc23)c1F [P-2174, Propane-1-sulfonic acid {2,4-difluoro-3-[5-(1H-pyrazol-4-yl)-1H-pyrrolo[2,3-b]pyridine-3-carbonyl]-phenyl}-amide] |  | > 10 µM
CCCS(=O)(=O)Nc1ccc(F)c(C(=O)c2c[nH]c3ncc(-c4cnn(CCN5CCOCC5)c4)cc23)c1F [P-2177, Propane-1-sulfonic acid (2,4-difluoro-3-{5-[1-(2-morpholin-4-yl-ethyl)-1H-pyrazol-4-yl]-1H-pyrrolo[2,3-b]pyridine-3-carbonyl}-phenyl)-amide] |  | < 20 µM
CCCS(=O)(=O)Nc1ccc(F)c(C(=O)c2c[nH]c3ncc(-c4ccc(S(C)(=O)=O)cc4)cc23)c1F [P-2183, Propane-1-sulfonic acid {2,4-difluoro-3-[5-(4-methanesulfonyl-phenyl)-1H-pyrrolo[2,3-b]pyridine-3-carbonyl]-phenyl}-amide] |  | < 20 µM
CCCS(=O)(=O)Nc1ccc(F)c(C(=O)c2c[nH]c3ncc(-c4ccc(S(=O)(=O)N(C)C)cc4)cc23)c1F [P-2185, 4-{3-[2,6-Difluoro-3-(propane-1-sulfonylamino)-benzoyl]-1H-pyrrolo[2,3-b]pyridin-5-yl}-N,N-dimethyl-benzenesulfonamide] |  | > 10 µM
CCCS(=O)(=O)Nc1ccc(F)c(C(=O)c2c[nH]c3ncc(-c4ccc(SC)nc4)cc23)c1F [P-2187, Propane-1-sulfonic acid {2,4-difluoro-3-[5-(6-methylsulfanyl-pyridin-3-yl)-1H-pyrrolo[2,3-b]pyridine-3-carbonyl]-phenyl}-amide] |  | > 10 µM
CCCS(=O)(=O)Nc1ccc(F)c(C(=O)c2c[nH]c3ncc(-c4cnn(Cc5ccccc5)c4)cc23)c1F [P-2190, Propane-1-sulfonic acid {3-[5-(1-benzyl-1H-pyrazol-4-yl)-1H-pyrrolo[2,3-b]pyridine-3-carbonyl]-2,4-difluoro-phenyl}-amide] |  | < 10 µM
CCCS(=O)(=O)Nc1ccc(F)c(C(=O)c2c[nH]c3ncc(-c4ccnc(F)c4)cc23)c1F [P-2192, Propane-1-sulfonic acid {2,4-difluoro-3-[5-(2-fluoro-pyridin-4-yl)-1H-pyrrolo[2,3-b]pyridine-3-carbonyl]-phenyl}-amide] |  | > 10 µM
CCCS(=O)(=O)Nc1ccc(F)c(C(=O)c2c[nH]c3ncc(-c4ccc(NC(C)=O)nc4)cc23)c1F [P-2193, N-(5-{3-[2,6-Difluoro-3-(propane-1-sulfonylamino)-benzoyl]-1H-pyrrolo[2,3-b]pyridin-5-yl}-pyridin-2-yl)-acetamide] |  | > 10 µM
CCCS(=O)(=O)Nc1ccc(F)c(C(=O)c2c[nH]c3ncc(-c4ccc(C)nc4)cc23)c1F [P-2213, Propane-1-sulfonic acid {2,4-difluoro-3-[5-(6-methyl-pyridin-3-yl)-1H-pyrrolo[2,3-b]pyridine-3-carbonyl]-phenyl}-amide] |  | < 20 µM
CCCS(=O)(=O)Nc1ccc(F)c(C(=O)c2c[nH]c3ncc(-c4ccc(N)nc4)cc23)c1F [P-2214, Propane-1-sulfonic acid {3-[5-(6-amino-pyridin-3-yl)-1H-pyrrolo[2,3-b]pyridine-3-carbonyl]-2,4-difluoro-phenyl}-amide] |  | < 20 µM
CCCS(=O)(=O)Nc1ccc(F)c(C(=O)c2c[nH]c3ncc(-c4ccc(S(=O)(=O)CC)cc4)cc23)c1F [P-2218, Propane-1-sulfonic acid {3-[5-(4-ethanesulfonyl-phenyl)-1H-pyrrolo[2,3-b]pyridine-3-carbonyl]-2,4-difluoro-phenyl}-amide] |  | < 20 µM
CCCS(=O)(=O)Nc1ccc(F)c(C(=O)c2c[nH]c3ncc(-c4ccc(C#CCN(CC)CC)nc4)cc23)c1F [P-2222, Propane-1-sulfonic acid (3-{5-[6-(3-diethylamino-prop-1-ynyl)-pyridin-3-yl]-1H-pyrrolo[2,3-b]pyridine-3-carbonyl}-2,4-difluoro-phenyl)-amide] |  | > 10 µM
CCCS(=O)(=O)Nc1ccc(F)c(C(=O)c2c[nH]c3ncc(-c4ccc(CCCOC)nc4)cc23)c1F [P-2226, Propane-1-sulfonic acid (2,4-difluoro-3-{5-[6-(3-methoxy-propyl)-pyridin-3-yl]-1H-pyrrolo[2,3-b]pyridine-3-carbonyl}-phenyl)-amide] |  | > 10 µM
CCCS(=O)(=O)Nc1ccc(F)c(C(=O)c2c[nH]c3ncc(-c4cccc(S(C)(=O)=O)c4)cc23)c1F [P-2228, Propane-1-sulfonic acid {2,4-difluoro-3-[5-(3-methanesulfonyl-phenyl)-1H-pyrrolo[2,3-b]pyridine-3-carbonyl]-phenyl}-amide] |  | > 10 µM
CCCS(=O)(=O)Nc1cccc(C(=O)c2c[nH]c3ncc(-c4cnc(N(C)C)nc4)cc23)c1F [P-2408, Propane-1-sulfonic acid {3-[5-(2-dimethylamino-pyrimidin-5-yl)-1H-pyrrolo[2,3-b]pyridine-3-carbonyl]-2-fluoro-phenyl}-amide] | < 0.01 µM | 
